Source: PMC12164071, “Lysine targeting covalent inhibitors of malarial kinase PfCLK3” (RSC Medicinal Chemistry, 2025)
Where two headings read alike, the source gives them in different places.

Columns and labels:
recombinant PfCLK3 = recombinant PfCLK3 (Plasmodium falciparum, UniProt Q8IIL5); test: TR-FRET kinase assay at Km ATP; assay type: biochemical; conditions: 2 hour incubation, errors SD, N ≥ 3, * concentration response curve not complete
Experimental: All compounds were then evaluated against recombinant PfCLK3 using a TR-FRET kinase assay (Fig. 5). […]
Time Resolved Förster Resonance Energy Transfer (TR-FRET) Assay
Tr-FRET technology was used to determine kinase activity and Km ATP before profiling compounds. An 11-point half-log serial dilution of each test compound was prepared in 100% DMSO at 100X final test concentration. The dilution series were dispensed onto assay plates with liquid handling machinery using positive displacement. The final DMSO concentration in the assay was 1%. To obtain IC 50 values, full length recombinant PfCLK3 was prepared in 1X assay buffer (50 mM Hepes, 10 mM MgCl2, 1 mM EGTA, 0.01% Tween20, 2 mM TCEP) at a 2X concentration and incubated with compounds for 15 minutes at room temperature before addition of ULight-labelled peptide substrate (MBP) with Km ATP (at 2X concentration). The reaction was centrifuged and incubated for 2 hr at 37 °C. To stop the reaction, 1X Lance detection buffer was added with 1 nM Eu-labelled anti-MBP and 10 mM EDTA, and the reaction was incubated in the dark for 2 hr at room temperature to allow detection to take place. Plate output was read on a Pherastar FSX and data analysed in Graphpad Prism to a 4-parameter curve fit. […]

[1] = system: 3D7 Plasmodium falciparum parasites; test: Ex vivo P. falciparum (3D7) inhibition assay; assay type: cell-based; conditions: 3D7, Pf3D7 parasites, 72 hours, errors SD
Experimental: Compounds 4, 5, 8 and 9 were then assessed against 3D7 Plasmodium falciparum parasites (Fig. 6). […]
P. falciparum (3D7) culture and synchronisation.
P. falciparum cultures were maintained in RPMI-1640 media (Invitrogen) supplemented with 0.2% sodium bicarbonate, 0.5% Albumax II, 2.0 mM L-glutamine (Sigma) and 10 mg/L gentamycin. For continuous culture, the parasites were maintained at 4% haematocrit in human erythrocytes from 0+ blood donors and between 0.5 - 3% parasitaemia in an incubator at 37 °C, 5% carbon dioxide (CO 2), 5% oxygen (O 2) and 90% nitrogen (N 2). To obtain highly synchronous ring stage parasites for assays, cultures were double synchronised using Percoll and Sorbitol synchronisation. First, highly segmented schizonts were enriched by centrifugation on a 70% Percoll (GE Healthcare) cushion gradient. The Schizont pellet was collected and washed twice before fresh erythrocytes were added to a final haematocrit of 4%, and incubated for about 1-2 hours shaking continuously to allow merozoites egress and re-invasion of new erythrocytes. Residual schizonts were then removed by a second Percoll purification followed by treating the ring pellet with sorbitol to generate highly synchronous 1-2 hours old ring-stage parasites.
Ex vivo P. Falciparum (3D7) inhibition assay.
To determine the IC 50 of the molecules in parasites (P. falciparum 3D7) ex vivo, the molecules were diluted 1 in 3 from a starting concentration of 100 μM for 12 dilution points in triplicate. 50 μL of freshly diluted drugs, at twice the required final concentrations were aliquoted into black 96-well plates. To the compound plates, 50 μL of parasites prepared at 8% haematocrit at a parasitaemia (0.3 - 0.5%) were added and mixed by pipetting up and down several times giving a final culture volume of 100 μL at the required compound concentration (top concentration of 100 μM) and 4% haematocrit. To the ‘no compound’ control, growth media was added and uninfected erythrocytes were included on the plate as blank. The outer wells were filled with media to reduce evaporation from the experimental wells and the plates incubated for 72 hours (±2 hours) to allow the parasites sufficient time to re-invade before they are collected and frozen. For cellular washout studies, compound media was exchanged for compound-free media after 6 hours, and the parasites incubated for a […]

[2] = N ≥ 3, read-out: pEC50 (3D7) (converted)

Sequence of recombinant PfCLK3 (Q8IIL5 entry or part of it): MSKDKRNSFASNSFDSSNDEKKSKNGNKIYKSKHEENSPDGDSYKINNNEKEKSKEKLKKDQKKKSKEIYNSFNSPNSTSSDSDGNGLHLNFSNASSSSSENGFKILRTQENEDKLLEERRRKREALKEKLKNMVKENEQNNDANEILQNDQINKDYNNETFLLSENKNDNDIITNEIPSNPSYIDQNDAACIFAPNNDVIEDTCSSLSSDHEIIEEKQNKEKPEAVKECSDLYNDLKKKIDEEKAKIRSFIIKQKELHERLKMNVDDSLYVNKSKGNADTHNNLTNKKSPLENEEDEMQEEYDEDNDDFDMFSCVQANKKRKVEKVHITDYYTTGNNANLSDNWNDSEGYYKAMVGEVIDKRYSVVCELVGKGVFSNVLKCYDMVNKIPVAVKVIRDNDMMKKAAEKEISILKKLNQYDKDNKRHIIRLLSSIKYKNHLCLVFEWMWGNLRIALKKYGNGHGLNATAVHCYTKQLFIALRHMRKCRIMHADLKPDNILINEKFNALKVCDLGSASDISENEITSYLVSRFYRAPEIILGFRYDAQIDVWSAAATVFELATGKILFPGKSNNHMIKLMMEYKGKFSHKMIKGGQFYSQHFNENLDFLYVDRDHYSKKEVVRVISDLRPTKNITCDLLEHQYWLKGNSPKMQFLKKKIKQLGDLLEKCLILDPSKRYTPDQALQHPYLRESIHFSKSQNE

| SMILES | IC50 (recombinant PfCLK3; IC50 (apparent), Km ATP (5 μM)) | IC50 (recombinant PfCLK3; pIC50, Km ATP (5 μM)) | EC50 ([1]; N ≥ 3, read-out: EC50 (3D7)) | EC50 [1, 2] |
| --- | --- | --- | --- | --- |
| C#Cc1ccc(-c2c[nH]c3ncc(-c4cc(CN(CC)CC)ccc4OC)cc23)cc1C=O [Compound 9] | 16 ± 4 nM | 16.6 nM | 4350 ± 500 nM | 4370 nM |
| CCN(CC)Cc1ccc(OC)c(-c2cc3c(-c4ccc(O)c(C=O)c4)ccnc3[nH]2)c1 [Compound 4] | 16 ± 9 nM | 16.2 nM | 6350 ± 2310 nM | 6310 nM |
